Source: PubChem BioAssay AID1845199 (Molecular Pharmacology Branch, DTP, NCI, 2023)

Test system: 556581-035-R-J1 tumor spheroid viability, % test/control
Assay: Anticancer human tumor 556581-035-R-J1 patient-derived ovarian carcinoma cell line growth inhibition
Conditions: spheroids with HUVEC and MSC; for IC50: curve of first compound; for viability, T/C: stronger effect = lower value
Outline: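 Complex tumor spheroids combined malignant cells with endothelial cells and mesenchymal stem cells. DNA-damaging drugs and DNA repair inhibitors were tested alone and in combination, at half-log dilutions down from clinical Cmax (top 10 microM if Cmax unknown), 0.25% DMSO final.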

[1] = second compound 1 µM, first compound 0.0316 µM
[2] = second compound 1 µM, first compound 0.1 µM
[3] = second compound 1 µM, first compound 0.316 µM
[4] = second compound 1 µM, first compound 1 µM
[5] = second compound 1 µM, first compound 3.16 µM
[6] = second compound 1 µM, first compound 10 µM
[7] = second compound 3.16 µM, first compound 0.0316 µM
[8] = second compound 3.16 µM, first compound 0.1 µM
[9] = second compound 3.16 µM, first compound 0.316 µM
[10] = second compound 3.16 µM, first compound 1 µM
[11] = second compound 3.16 µM, first compound 3.16 µM
[12] = second compound 3.16 µM, first compound 10 µM
[13] = second compound 10 µM, first compound 0.0316 µM
[14] = second compound 10 µM, first compound 0.1 µM
[15] = second compound 10 µM, first compound 0.316 µM
[16] = second compound 10 µM, first compound 1 µM
[17] = second compound 10 µM, first compound 3.16 µM
[18] = second compound 10 µM, first compound 10 µM
[19] = second compound 31.6 µM, first compound 0.0316 µM
[20] = second compound 31.6 µM, first compound 0.1 µM
[21] = second compound 31.6 µM, first compound 0.316 µM
[22] = second compound 31.6 µM, first compound 1 µM
[23] = second compound 31.6 µM, first compound 3.16 µM
[24] = second compound 31.6 µM, first compound 10 µM
[25] = second compound 100 µM, first compound 0.0316 µM
[26] = second compound 100 µM, first compound 0.1 µM
[27] = second compound 100 µM, first compound 0.316 µM
[28] = second compound 100 µM, first compound 1 µM
[29] = second compound 100 µM, first compound 3.16 µM
[30] = second compound 100 µM, first compound 10 µM
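Also: spheroids exposed to compounds for 7 days before viability read.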

Cn1ncnc1[C@H]1c2n[nH]c(=O)c3cc(F)cc(c23)N[C@@H]1c1ccc(F)cc1 + CC[C@@]1(O)C(=O)OCc2c1cc1n(c2=O)Cc2cc3c(CN(C)C)c(O)ccc3nc2-1
IC50 (second compound 0.003 µM): > 3000 nM
IC50 (second compound 0.00949 µM): > 3000 nM
IC50 (second compound 0.03 µM): 1300 nM
IC50 (second compound 0.0949 µM): 67.5 nM
IC50 (second compound 0.3 µM): < 9.49 nM
viability, T/C (second compound 0.003 µM, first compound 0.00949 µM): 105%
viability, T/C (second compound 0.003 µM, first compound 0.03 µM): 97.7%
viability, T/C (second compound 0.003 µM, first compound 0.0949 µM): 93.2%
viability, T/C (second compound 0.003 µM, first compound 0.3 µM): 94.3%
viability, T/C (second compound 0.003 µM, first compound 0.949 µM): 71.1%
viability, T/C (second compound 0.003 µM, first compound 3 µM): 57.1%
viability, T/C (second compound 0.00949 µM, first compound 0.00949 µM): 88.2%
viability, T/C (second compound 0.00949 µM, first compound 0.03 µM): 81.7%
viability, T/C (second compound 0.00949 µM, first compound 0.0949 µM): 82.2%
viability, T/C (second compound 0.00949 µM, first compound 0.3 µM): 71.4%
viability, T/C (second compound 0.00949 µM, first compound 0.949 µM): 68.5%
viability, T/C (second compound 0.00949 µM, first compound 3 µM): 49.4%
viability, T/C (second compound 0.03 µM, first compound 0.00949 µM): 70%
viability, T/C (second compound 0.03 µM, first compound 0.03 µM): 67.2%
viability, T/C (second compound 0.03 µM, first compound 0.0949 µM): 63.2%
viability, T/C (second compound 0.03 µM, first compound 0.3 µM): 64.9%
viability, T/C (second compound 0.03 µM, first compound 0.949 µM): 52.9%
viability, T/C (second compound 0.03 µM, first compound 3 µM): 39.8%
viability, T/C (second compound 0.0949 µM, first compound 0.00949 µM): 57.9%
viability, T/C (second compound 0.0949 µM, first compound 0.03 µM): 51.3%
viability, T/C (second compound 0.0949 µM, first compound 0.0949 µM): 45%
viability, T/C (second compound 0.0949 µM, first compound 0.3 µM): 44.2%
viability, T/C (second compound 0.0949 µM, first compound 0.949 µM): 36.2%
viability, T/C (second compound 0.0949 µM, first compound 3 µM): 19.2%
viability, T/C (second compound 0.3 µM, first compound 0.00949 µM): 13.2%
viability, T/C (second compound 0.3 µM, first compound 0.03 µM): 13.1%
viability, T/C (second compound 0.3 µM, first compound 0.0949 µM): 12.7%
viability, T/C (second compound 0.3 µM, first compound 0.3 µM): 11%
viability, T/C (second compound 0.3 µM, first compound 0.949 µM): 9.44%
viability, T/C (second compound 0.3 µM, first compound 3 µM): 6.18%

CC(C)n1c(=O)n(C)c2cnc3cc(F)c(-c4ccc(OCCCN5CCCCC5)nc4)cc3c21 + Cn1nnc2c(C(N)=O)ncn2c1=O
IC50 (second compound 1 µM): > 10000 nM
IC50 (second compound 3.16 µM): > 10000 nM
IC50 (second compound 10 µM): > 10000 nM
IC50 (second compound 31.6 µM): > 10000 nM
IC50 (second compound 100 µM): > 10000 nM
viability, T/C [1]: 109%
viability, T/C [2]: 109%
viability, T/C [3]: 109%
viability, T/C [4]: 106%
viability, T/C [5]: 98.5%
viability, T/C [6]: 70.2%
viability, T/C [7]: 101%
viability, T/C [8]: 112%
viability, T/C [9]: 101%
viability, T/C [10]: 112%
viability, T/C [11]: 96.6%
viability, T/C [12]: 62.3%
viability, T/C [13]: 102%
viability, T/C [14]: 109%
viability, T/C [15]: 105%
viability, T/C [16]: 104%
viability, T/C [17]: 95.5%
viability, T/C [18]: 67.3%
viability, T/C [19]: 108%
viability, T/C [20]: 106%
viability, T/C [21]: 103%
viability, T/C [22]: 112%
viability, T/C [23]: 92.7%
viability, T/C [24]: 65.8%
viability, T/C [25]: 105%
viability, T/C [26]: 106%
viability, T/C [27]: 99.6%
viability, T/C [28]: 101%
viability, T/C [29]: 90.1%
viability, T/C [30]: 69.1%

CC1COCCN1c1cc(-c2ccnn2C)c2ccnc(-c3ccn[nH]3)c2n1 (stereo not given) + Cn1nnc2c(C(N)=O)ncn2c1=O
IC50 (second compound 1 µM): 565 nM
IC50 (second compound 3.16 µM): 591 nM
IC50 (second compound 10 µM): 679 nM
IC50 (second compound 31.6 µM): 604 nM
IC50 (second compound 100 µM): 392 nM
viability, T/C [1]: 93.7%
viability, T/C [2]: 69.3%
viability, T/C [3]: 56.3%
viability, T/C [4]: 43.7%
viability, T/C [5]: 39.9%
viability, T/C [6]: 33%
viability, T/C [7]: 90.6%
viability, T/C [8]: 72.5%
viability, T/C [9]: 56.4%
viability, T/C [10]: 44.2%
viability, T/C [11]: 37.8%
viability, T/C [12]: 32.5%
viability, T/C [13]: 86.8%
viability, T/C [14]: 71%
viability, T/C [15]: 56%
viability, T/C [16]: 45.9%
viability, T/C [17]: 40%
viability, T/C [18]: 31.2%
viability, T/C [19]: 88.9%
viability, T/C [20]: 71.6%
viability, T/C [21]: 54.6%
viability, T/C [22]: 45.8%
viability, T/C [23]: 39.1%
viability, T/C [24]: 33.4%
viability, T/C [25]: 82.8%
viability, T/C [26]: 63.8%
viability, T/C [27]: 51.7%
viability, T/C [28]: 42.8%
viability, T/C [29]: 38.1%
viability, T/C [30]: 32.8%
